Results as given in the supplement of paper PMC10307832.

Key:
Assay in all cases: relative viability (nuclei count vs DMSO), 5 days (fraction); higher = more cells survive
NCI-H838 = tested on: NCI-H838
Method in brief: (§1)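 Relative viability is defined as nuclei in treated wells over nuclei in vehicle wells. Duplicate plates were run and medians reported. Lung cancer cell lines in 1536-well plates were dosed by pin tool one day after seeding, with one drug or with a fixed anchor-drug dose plus five library-drug doses (not always all listed) in √10 steps, and nuclei were counted after 5 days.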

NCI-H2126 = tested on: NCI-H2126
Method in brief: as §1

NCI-H522 = tested on: NCI-H522
Method in brief: as §1

BEN = tested on: BEN
Method in brief: as §1

NCI-H1993 = tested on: NCI-H1993
Method in brief: as §1

NCI-H647 = tested on: NCI-H647
Method in brief: as §1

NCI-H2347 = tested on: NCI-H2347
Method in brief: as §1

LOU-NH91 = tested on: LOU-NH91
Method in brief: as §1

NCI-H727 = tested on: NCI-H727
Method in brief: as §1

NCI-H2087 = tested on: NCI-H2087
Method in brief: as §1

LCLC-103H = tested on: LCLC-103H
Method in brief: as §1

NCI-H650 = tested on: NCI-H650
Method in brief: as §1

NCI-H441 = tested on: NCI-H441
Method in brief: as §1

HCC-44 = tested on: HCC-44
Method in brief: as §1

NCI-H1395 = tested on: NCI-H1395
Method in brief: as §1

HARA = tested on: HARA
Method in brief: as §1

EMC-BAC-2 = tested on: EMC-BAC-2
Method in brief: as §1

201T = tested on: 201T
Method in brief: as §1

NCI-H23 = tested on: NCI-H23
Method in brief: as §1

NCI-H3122 = tested on: NCI-H3122
Method in brief: as §1

NCI-H596 = tested on: NCI-H596
Method in brief: as §1

`COc1cc2nccc(Oc3ccc(NC(=O)Nc4cc(C)on4)c(Cl)c3)c2cc1OC` [Tivozanib] + NC(=O)Nc1cc(-c2cccc(F)c2)sc1C(=O)N[C@H]1CCCNC1 [AZD7762] (partner 0.2 µM) showed a relative viability (NCI-H838; first compound 0.005 µM) of 0.918, a relative viability (NCI-H838; first compound 0.01581 µM) of 0.895 and a relative viability (NCI-H838; first compound 0.05 µM) of 0.973. It also gave a relative viability (NCI-H838; first compound 0.1581 µM) of 1.04, a relative viability (NCI-H838; first compound 0.5 µM) of 0.95 and a relative viability (NCI-H2126; first compound 0.005 µM) of 1.06. The relative viability (NCI-H2126; first compound 0.01581 µM) was 0.936, the relative viability (NCI-H2126; first compound 0.05 µM) was 1.02 and the relative viability (NCI-H2126; first compound 0.1581 µM) was 0.732. It also gave a relative viability (NCI-H2126; first compound 0.5 µM) of 1.01, a relative viability (NCI-H522; first compound 0.005 µM) of 0.903 and a relative viability (NCI-H522; first compound 0.01581 µM) of 0.793. The relative viability (NCI-H522; first compound 0.05 µM) was 0.784, the relative viability (NCI-H522; first compound 0.1581 µM) was 0.811 and the relative viability (NCI-H522; first compound 0.5 µM) was 0.857. For the same compound, the relative viability (BEN; first compound 0.005 µM) was 0.6, the relative viability (BEN; first compound 0.01581 µM) was 0.712 and the relative viability (BEN; first compound 0.05 µM) was 0.869. The relative viability (BEN; first compound 0.1581 µM) was 0.375, the relative viability (BEN; first compound 0.5 µM) was 0.737 and the relative viability (NCI-H1993; first compound 0.005 µM) was 0.722. It also gave a relative viability (NCI-H1993; first compound 0.01581 µM) of 0.714, a relative viability (NCI-H1993; first compound 0.05 µM) of 0.968 and a relative viability (NCI-H1993; first compound 0.1581 µM) of 0.631. The relative viability (NCI-H1993; first compound 0.5 µM) was 0.664, the relative viability (NCI-H647; first compound 0.005 µM) was 0.367 and the relative viability (NCI-H647; first compound 0.01581 µM) was 0.42. For the same compound, the relative viability (NCI-H647; first compound 0.05 µM) was 0.789, the relative viability (NCI-H647; first compound 0.1581 µM) was 0.377 and the relative viability (NCI-H647; first compound 0.5 µM) was 0.369. It also gave a relative viability (NCI-H2347; first compound 0.005 µM) of 0.73, a relative viability (NCI-H2347; first compound 0.01581 µM) of 0.836 and a relative viability (NCI-H2347; first compound 0.05 µM) of 0.92. The relative viability (NCI-H2347; first compound 0.1581 µM) was 0.685, the relative viability (NCI-H2347; first compound 0.5 µM) was 0.709 and the relative viability (LOU-NH91; first compound 0.005 µM) was 0.712. It also gave a relative viability (LOU-NH91; first compound 0.01581 µM) of 0.77, a relative viability (LOU-NH91; first compound 0.05 µM) of 0.753 and a relative viability (LOU-NH91; first compound 0.1581 µM) of 0.734. It also gave a relative viability (LOU-NH91; first compound 0.5 µM) of 0.701, a relative viability (NCI-H727; first compound 0.005 µM) of 0.548 and a relative viability (NCI-H727; first compound 0.01581 µM) of 0.657. It also gave a relative viability (NCI-H727; first compound 0.05 µM) of 0.408, a relative viability (NCI-H727; first compound 0.1581 µM) of 0.442 and a relative viability (NCI-H727; first compound 0.5 µM) of 0.697. The relative viability (NCI-H2087; first compound 0.005 µM) was 1.3, the relative viability (NCI-H2087; first compound 0.01581 µM) was 1.3 and the relative viability (NCI-H2087; first compound 0.05 µM) was 1.28. For the same compound, the relative viability (NCI-H2087; first compound 0.1581 µM) was 1.55, the relative viability (NCI-H2087; first compound 0.5 µM) was 1.22 and the relative viability (LCLC-103H; first compound 0.005 µM) was 0.758. It also gave a relative viability (LCLC-103H; first compound 0.01581 µM) of 0.829, a relative viability (LCLC-103H; first compound 0.05 µM) of 0.812 and a relative viability (LCLC-103H; first compound 0.1581 µM) of 0.689. The relative viability (LCLC-103H; first compound 0.5 µM) was 0.802, the relative viability (NCI-H650; first compound 0.005 µM) was 0.771 and the relative viability (NCI-H650; first compound 0.01581 µM) was 1.08. It also gave a relative viability (NCI-H650; first compound 0.05 µM) of 0.976, a relative viability (NCI-H650; first compound 0.1581 µM) of 0.958 and a relative viability (NCI-H650; first compound 0.5 µM) of 0.683. It also gave a relative viability (NCI-H441; first compound 0.005 µM) of 1.05, a relative viability (NCI-H441; first compound 0.01581 µM) of 0.935 and a relative viability (NCI-H441; first compound 0.05 µM) of 1.28. It also gave a relative viability (NCI-H441; first compound 0.1581 µM) of 1.35, a relative viability (NCI-H441; first compound 0.5 µM) of 1.08 and a relative viability (HCC-44; first compound 0.005 µM) of 0.996. For the same compound, the relative viability (HCC-44; first compound 0.01581 µM) was 0.963, the relative viability (HCC-44; first compound 0.05 µM) was 1.01 and the relative viability (HCC-44; first compound 0.1581 µM) was 1.09. For the same compound, the relative viability (HCC-44; first compound 0.5 µM) was 1.01, the relative viability (NCI-H1395; first compound 0.005 µM) was 0.359 and the relative viability (NCI-H1395; first compound 0.01581 µM) was 0.389. It also gave a relative viability (NCI-H1395; first compound 0.05 µM) of 0.402, a relative viability (NCI-H1395; first compound 0.1581 µM) of 0.386 and a relative viability (NCI-H1395; first compound 0.5 µM) of 0.35. The relative viability (HARA; first compound 0.005 µM) was 0.268, the relative viability (HARA; first compound 0.01581 µM) was 0.335 and the relative viability (HARA; first compound 0.05 µM) was 0.424. It also gave a relative viability (HARA; first compound 0.1581 µM) of 0.231, a relative viability (HARA; first compound 0.5 µM) of 0.267 and a relative viability (EMC-BAC-2; first compound 0.005 µM) of 1.06. It also gave a relative viability (EMC-BAC-2; first compound 0.01581 µM) of 1.15, a relative viability (EMC-BAC-2; first compound 0.05 µM) of 1.06 and a relative viability (EMC-BAC-2; first compound 0.1581 µM) of 1.06. For the same compound, the relative viability (EMC-BAC-2; first compound 0.5 µM) was 1.04, the relative viability (201T; first compound 0.005 µM) was 0.599 and the relative viability (201T; first compound 0.01581 µM) was 0.575. For the same compound, the relative viability (201T; first compound 0.05 µM) was 0.659, the relative viability (201T; first compound 0.1581 µM) was 0.595 and the relative viability (201T; first compound 0.5 µM) was 0.601. For the same compound, the relative viability (NCI-H23; first compound 0.005 µM) was 0.185, the relative viability (NCI-H23; first compound 0.01581 µM) was 0.229 and the relative viability (NCI-H23; first compound 0.05 µM) was 0.295. For the same compound, the relative viability (NCI-H23; first compound 0.5 µM) was 0.176, the relative viability (NCI-H3122; first compound 0.005 µM) was 0.97 and the relative viability (NCI-H3122; first compound 0.01581 µM) was 0.876. The relative viability (NCI-H3122; first compound 0.05 µM) was 0.974, the relative viability (NCI-H3122; first compound 0.1581 µM) was 1.02 and the relative viability (NCI-H3122; first compound 0.5 µM) was 1.02. It also gave a relative viability (NCI-H596; first compound 0.005 µM) of 1.03, a relative viability (NCI-H596; first compound 0.01581 µM) of 1.1 and a relative viability (NCI-H596; first compound 0.05 µM) of 1.44. It also gave a relative viability (NCI-H596; first compound 0.5 µM) of 1.06.
